We go through 6 molecules from ChEMBL document CHEMBL1201862, “PubChem BioAssay data set” (2004).

Assay [1] has as its target 5-hydroxytryptamine receptor 5A (Homo sapiens, UniProt P47898). Put plainly: Counterscreen for agonists of OPRM1-OPRD1 heterodimerization: luminescence-based cell-based high throughput dose response assay to identify agonists of 5-hydroxytryptamine (serotonin) 5A receptor (HTR5A). [Related pubchem assays (depositor defined):AID504326, AID504355, AID504692, AID504904, AID504905]. Type of assay: functional. For orientation: Counterscreens check selectivity or assay interference.

Another assay deals with Streptococcus. The experiment in a line: Group A Streptococcus viability loss, dose response, counter-screen for streptokinase expression inhibitor project, luminescence, BacTiterGlo (AID 1915).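 Further: potency for reduction of bacterial viability or growth.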 Type of assay: functional, organism-based.
Assay [2] in a line: inhibitors of clade B AD8 Env fusion, dose response, cell-based, cherry-pick (AID 652062).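 Further: luciferase signal from cell-cell fusion driven by HIV-1 clade B AD8 Env; potency is for inhibitors of fusion seen as a drop in luminescence.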 Format: functional.
A short description of assay [3]: inhibitors of SNCA 5'UTR-driven reporter translation, confirmation, H4 neuroglioma cells, luminescence (AID 1988). Format: functional, cell-based.
Assay [4] in a line: Luminescence Cell-Based Dose Response HTS to Identify Inhibitors of 5'UTR Stem-Loop Driven Prion Protein mRNA Translation in H4 Neuroglioblastoma Cells. [Related pubchem assays: 1827 (Project Summary), 1813 (Primary HTS)]. Type of assay: functional.
Assay [5] deals with T1, Tyrosyl-DNA phosphodiesterase 2 (Homo sapiens, UniProt O95551).
T1 sequence (O95551 whole entry): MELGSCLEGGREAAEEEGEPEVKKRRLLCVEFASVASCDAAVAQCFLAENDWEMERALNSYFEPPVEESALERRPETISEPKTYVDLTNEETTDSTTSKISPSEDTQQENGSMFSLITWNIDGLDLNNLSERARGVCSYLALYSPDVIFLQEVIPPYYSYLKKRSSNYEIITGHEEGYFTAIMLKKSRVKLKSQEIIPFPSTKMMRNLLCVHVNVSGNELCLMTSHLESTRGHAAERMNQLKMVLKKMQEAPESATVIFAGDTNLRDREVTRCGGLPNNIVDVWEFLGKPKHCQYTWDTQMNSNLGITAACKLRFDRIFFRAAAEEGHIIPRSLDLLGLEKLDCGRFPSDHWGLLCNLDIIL
The experiment in a line: human TDP2 enzyme inhibitors, dose response, biochemical, epi absorbance, IC50 (AID 743297).

A further assay relates to HeLa. Put plainly: HeLa cell cytotoxicity, dose response, cytotoxicity control for MITF activator project, CellTiter-Glo luminescence, cherry-pick samples (AID 540259). Conditions: Homo sapiens. Format: functional, cell-based. In general terms: In ATP-based viability assays light output follows the ATP content of the culture.
The nature of assay [6]: cytotoxicity in HEK-293T cells, dose response, cytotoxicity control for TCR NF-kB inhibitor project, luminescence, T-cell screen hits (AID 489026).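 Further: cells exposed to compound about 14 hours before the viability readout.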 Format: functional, cell-based.
A further assay deals with HEK293. The experiment in a line: cytotoxicity in HEK293T NF-kB-Luc cells, SAR follow-up, cytotoxicity control for NF-kB activator project, cell-based, resazurin fluorescence (AID 493251). Format: functional. The settings on record: Homo sapiens. (In general: Alamar Blue is a resazurin reagent that responds to reducing activity.)
For another assay, the system named is Jurkat. Put plainly: SAR Analysis of small molecule inhibitors of T-cell specific antigen receptor-induced NF-kB activation in a Jurkat cell line using a luminescence assay - Set 2. [Related pubchem assays (depositor defined):AID435003, AID435012, AID465]. Format: functional, cell-based. The settings on record: Homo sapiens.
Another assay concerns the target SUMO-activating enzyme (Homo sapiens, UniProt Q9UBT2). Put plainly: SUMOylation inhibitor hit validation, confirmation, SUMOylation inhibitor project, biochemical, AlphaScreen (AID 2018). Format: functional.
Assay [7] has as its target T2, Insulin-degrading enzyme (Homo sapiens, UniProt P14735).
T2 sequence (P14735 whole entry): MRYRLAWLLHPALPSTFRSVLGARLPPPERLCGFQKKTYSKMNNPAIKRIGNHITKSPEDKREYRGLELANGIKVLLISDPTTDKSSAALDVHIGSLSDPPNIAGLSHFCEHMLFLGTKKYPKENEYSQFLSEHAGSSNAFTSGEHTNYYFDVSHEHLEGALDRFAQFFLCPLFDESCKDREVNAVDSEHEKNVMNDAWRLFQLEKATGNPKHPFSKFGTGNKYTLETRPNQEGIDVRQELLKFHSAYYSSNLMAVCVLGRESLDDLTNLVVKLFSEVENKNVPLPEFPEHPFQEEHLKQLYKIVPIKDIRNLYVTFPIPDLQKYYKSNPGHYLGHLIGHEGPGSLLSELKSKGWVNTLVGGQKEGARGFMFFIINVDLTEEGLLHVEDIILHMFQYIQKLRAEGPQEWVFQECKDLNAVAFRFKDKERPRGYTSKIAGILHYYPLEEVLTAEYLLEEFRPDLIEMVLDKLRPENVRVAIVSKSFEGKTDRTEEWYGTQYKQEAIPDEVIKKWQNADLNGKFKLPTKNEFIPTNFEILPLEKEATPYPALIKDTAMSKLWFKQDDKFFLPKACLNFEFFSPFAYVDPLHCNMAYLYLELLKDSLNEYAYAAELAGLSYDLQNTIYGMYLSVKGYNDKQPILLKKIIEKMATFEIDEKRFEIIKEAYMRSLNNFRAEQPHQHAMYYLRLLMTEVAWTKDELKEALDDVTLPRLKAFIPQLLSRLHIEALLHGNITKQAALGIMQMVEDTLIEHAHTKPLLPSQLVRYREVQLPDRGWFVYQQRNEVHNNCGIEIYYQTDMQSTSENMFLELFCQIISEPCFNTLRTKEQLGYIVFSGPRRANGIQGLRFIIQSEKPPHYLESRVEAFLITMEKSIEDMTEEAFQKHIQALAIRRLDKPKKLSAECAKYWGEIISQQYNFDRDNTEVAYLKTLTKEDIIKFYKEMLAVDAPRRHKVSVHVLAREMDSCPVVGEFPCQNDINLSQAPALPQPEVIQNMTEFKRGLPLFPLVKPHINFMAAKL
The experiment in a line: activators of endogenous IDE in HEK cells, dose response, cell-based, fluorescence polarization (AID 588439). Type of assay: functional.

The target in assay [8] is T3, Ubiquitin-conjugating enzyme E2 N (Homo sapiens, UniProt P61088).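 Further: Dose-response confirmation in a TR-FRET assay detecting UBC13-driven polyubiquitin chain formation, inhibition measured.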
T3 sequence (P61088 whole entry): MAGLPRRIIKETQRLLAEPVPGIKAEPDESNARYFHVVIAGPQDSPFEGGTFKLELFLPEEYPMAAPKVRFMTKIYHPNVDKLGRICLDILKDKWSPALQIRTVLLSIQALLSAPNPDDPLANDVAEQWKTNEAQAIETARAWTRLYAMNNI
Type of assay: functional.

Assay [9] has as its target T2, Insulin-degrading enzyme. Put plainly: activators of recombinant IDE enzyme, dose response, counter-screen for IDE activator project, biochemical, fluorescence polarization (AID 588681).

Each structure is given as a SMILES string. Calls of active or inactive are those of the source.

Chain of SUMO-activating enzyme (Q9UBE0 whole entry): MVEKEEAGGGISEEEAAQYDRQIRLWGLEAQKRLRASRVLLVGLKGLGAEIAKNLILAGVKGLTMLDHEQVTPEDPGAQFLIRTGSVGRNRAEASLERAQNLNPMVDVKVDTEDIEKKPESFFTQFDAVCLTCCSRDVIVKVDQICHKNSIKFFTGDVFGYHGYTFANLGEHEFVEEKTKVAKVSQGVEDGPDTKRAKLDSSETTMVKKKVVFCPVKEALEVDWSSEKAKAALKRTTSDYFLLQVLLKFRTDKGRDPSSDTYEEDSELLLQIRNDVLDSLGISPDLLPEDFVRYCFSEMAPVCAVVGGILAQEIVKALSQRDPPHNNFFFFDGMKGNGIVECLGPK
Chain of SUMO-activating enzyme (Q9UBT2 whole entry): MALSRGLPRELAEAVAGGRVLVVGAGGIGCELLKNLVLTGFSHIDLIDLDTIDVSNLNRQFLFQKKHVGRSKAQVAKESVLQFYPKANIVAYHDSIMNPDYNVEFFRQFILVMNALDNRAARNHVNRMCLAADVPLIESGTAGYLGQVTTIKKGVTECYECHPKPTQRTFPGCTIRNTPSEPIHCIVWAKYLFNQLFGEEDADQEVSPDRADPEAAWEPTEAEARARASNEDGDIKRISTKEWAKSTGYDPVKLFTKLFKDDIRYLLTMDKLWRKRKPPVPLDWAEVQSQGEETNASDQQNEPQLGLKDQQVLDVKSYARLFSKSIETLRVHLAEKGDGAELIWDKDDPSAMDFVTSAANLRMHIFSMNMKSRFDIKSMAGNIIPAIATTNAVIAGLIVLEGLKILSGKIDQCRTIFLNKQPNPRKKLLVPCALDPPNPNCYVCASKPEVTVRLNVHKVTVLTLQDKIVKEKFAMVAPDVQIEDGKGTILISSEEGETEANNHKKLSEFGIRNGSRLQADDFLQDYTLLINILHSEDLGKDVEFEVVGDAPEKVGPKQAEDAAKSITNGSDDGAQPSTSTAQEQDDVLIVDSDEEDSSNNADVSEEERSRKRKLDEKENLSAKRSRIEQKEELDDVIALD
Chain of 5-hydroxytryptamine receptor 5A (P47898 whole entry): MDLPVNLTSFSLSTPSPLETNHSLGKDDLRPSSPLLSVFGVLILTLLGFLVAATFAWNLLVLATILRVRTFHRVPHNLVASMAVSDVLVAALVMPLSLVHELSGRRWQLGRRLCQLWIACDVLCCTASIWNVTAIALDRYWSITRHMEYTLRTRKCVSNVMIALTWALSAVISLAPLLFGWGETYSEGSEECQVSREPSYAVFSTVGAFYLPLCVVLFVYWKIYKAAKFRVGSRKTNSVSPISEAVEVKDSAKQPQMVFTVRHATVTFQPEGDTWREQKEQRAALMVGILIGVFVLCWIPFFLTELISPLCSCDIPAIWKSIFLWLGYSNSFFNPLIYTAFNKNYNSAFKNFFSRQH

One may read the EC50 as the concentration giving half of the maximal effect. One may read the AC50 as the concentration at which the activity in the assay is half-maximal. In the case of `CCc1ccc(Nc2n[n+](-c3ccccc3)c(-c3c(Cl)cccc3Cl)s2)cc1`, the values for the EC50 (in assay [1]; in the assay on Streptococcus) were > 92.5 µM (inactive) and 10.3 µM (active), respectively. The concentration at half-maximal activity (AC50) in assay [2] was 5.91 µM (active).

A word on the IC50: it is the midpoint of a concentration-inhibition curve. As to `CCOC(=O)c1c(C)[nH]c2c1-c1ccccc1C(=O)C2=O`, the figures for the half-maximal effective concentration (EC50) in assay [3] and in assay [4] were 0.254 µM (active) and 1.35 µM (active), respectively. The 50% inhibitory concentration (IC50) in assay [5] was 0.915 µM (active).

Regarding `COc1ccc2c(c1)CCC(/C=N/c1ccc3c(c1)OCO3)=C2O`, the concentration at half-maximal activity (AC50) in the assay with HeLa was 48.4 µM (active).

Take `CC(=O)NC(c1ccc2ccccc2c1)c1ccc2cccnc2c1O` (centres undefined): the IC50 in [6] is > 80 µM (inactive); in the assay with HEK293, 21.5 µM (inactive); with Jurkat it was 1.89 µM (active).

As for `CCOC(=O)c1c(C)oc2c1c(/C=N/CCC(=O)O)c(O)c1ccccc12`, the half-inhibitory concentration (IC50) at SUMO-activating enzyme is 3.71 µM (active).

As to `CCOC(=O)C1=C(c2ccccc2)N=C(N)NC1c1ccc(OCc2ccc(Cl)cc2)c(OC)c1` (centres undefined), the EC50 is 42.5 µM (inactive) at Insulin-degrading enzyme [7] and 52.1 µM (inactive) at Insulin-degrading enzyme [9]. Besides, the IC50 in assay [8] was > 20 µM (inactive).
